Drawing on patent US11059832B2, “HPK1 inhibitors and methods of using same” (University Health Network, priority 2015, dated 2021), this text covers IC50 for 24 compounds.

For one test, the target named is T1, human HPK1 (MAP4K1) (Homo sapiens, UniProt Q92918).
T1 construct: human HPK1 (aa 1-346); purchased Invitrogen PV6355
T1 sequence (Q92918 1-346): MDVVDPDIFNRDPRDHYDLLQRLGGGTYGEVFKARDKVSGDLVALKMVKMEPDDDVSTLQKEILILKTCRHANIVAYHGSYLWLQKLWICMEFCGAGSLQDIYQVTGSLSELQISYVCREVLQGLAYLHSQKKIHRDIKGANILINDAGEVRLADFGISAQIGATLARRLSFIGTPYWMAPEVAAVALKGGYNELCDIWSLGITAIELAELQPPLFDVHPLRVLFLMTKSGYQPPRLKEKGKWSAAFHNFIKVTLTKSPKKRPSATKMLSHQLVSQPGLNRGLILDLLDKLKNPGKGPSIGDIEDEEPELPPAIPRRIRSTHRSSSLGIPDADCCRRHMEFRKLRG
The test can be described thus: HPK1 inhibition assay (indirect ELISA). Format: biochemical. Particulars: GST-HPK1 0.6 nM, 12 μM ATP; read-out: IC50 Range HPK1. As for the experimental part: Active HPK1 (MAP4K1) was purchased as an N-terminal GST fusion of human HPK1 (aa 1-346) from Invitrogen (cat #PV6355). HPK1 activity was measured using an indirect ELISA detection system. GST-HPK1 (0.6 nM) was incubated in the presence of 12 μM ATP (Sigma cat #A7699), 5 mM MOPS (pH 7.2), 2.5 mM β-glycerol-phosphate, 5 mM MgCl2, 0.4 mM EDTA, 1 mM EGTA, 0.05 mM DTT, in a 96 well microtitre plate pre-coated with 0.5 μg/well bovine myelin basic protein (MBP) (Millipore, cat #13-110). The reaction was allowed to proceed for 30 min, followed by 5 washes of the plate with Wash Buffer (phosphate buffered saline supplemented with 0.2% Tween 20), and incubation for 30 min with a 1:3000 dilution of anti-phospho-threonine rabbit polyclonal antibody (Cell Signaling cat #9381). The plate was washed 5 times with wash buffer, incubated for 30 min in the presence of goat anti-rabbit horse radish peroxidase conjugate (BioRad cat #1721019, 1:3000 concentration), washed an additional 5 times with wash buffer, and incubated in the presence of TMB substrate (Sigma cat #T0440). The colorimetric reaction was allowed to continue for 5 min, followed by addition of stop solution (0.5 N H2SO4), and quantified by detection at 450 nm with a monochromatic plate reader (Molecular Devices M5).
Compound inhibition was determined at either a fixed concentration (10 μM) or at a variable inhibitor concentration (typically 50 μM to 0.1 μM in a 10 point dose response titration). Compounds were pre-incubated in the presence of enzyme for 15 min prior to addition of ATP and the activity remaining quantified using the above described activity assay. The % inhibition of a compound was determined using the following formula; % inhibition=100×(1−(experimental value−background value)/(high activity control−background value)). The IC50 value was determined using a non-linear 4 point logistic curve fit (XLfit4, IDBS) with the formula; (A+(B/(1+((x/C)^D)))), where A=background value, B=range, C=inflection point, D=curve fit parameter.
With `Cc1cc2c(N)c(-c3nc4ccc(N5CCN(C)CC5)cc4[nH]3)c(=O)[nH]c2s1` [Example A3, 4-amino-2-methyl-5-(6-(4-methylpiperazin-1-yl)-1H-benzo[d]imidazol-2-yl)thieno[2,3-b]pyridin-6(7H)-one], the IC50 was greater than 500 nM.
For `COc1csc2[nH]c(=O)c(-c3nc4ccc(N5CCN(C)CC5)cc4[nH]3)c(N)c12` [Example A5, 4-amino-3-methoxy-5-(6-(4-methylpiperazin-1-yl)-1H-benzo[d]imidazol-2-yl)thieno[2,3-b]pyridin-6(7H)-one], the IC50 is greater than 500 nM.
With `CCOc1csc2[nH]c(=O)c(-c3nc4ccc(N5CCN(C)CC5)cc4[nH]3)c(N)c12` [Example A6, 4-amino-3-ethoxy-5-(6-(4-methylpiperazin-1-yl)-1H-benzo[d]imidazol-2-yl)thieno[2,3-b]pyridin-6(7H)-one], the IC50 lay in the range of 50 to 500 nM.
`CN1CCN(c2ccc3nc(-c4c(N[C@H]5CCOC5)c5ccsc5[nH]c4=O)[nH]c3c2)CC1` [Example A11, (S)-5-(6-(4-methylpiperazin-1-yl)-1H-benzo[d]imidazol-2-yl)-4-((tetrahydrofuran-3-yl)amino)thieno[2,3-b]pyridin-6(7H)-one]: the IC50 is no more than 50 nM.
With `CN1CCN(c2ccc3nc(-c4c(N[C@H]5C[C@@H](O)C5)c5ccsc5[nH]c4=O)[nH]c3c2)CC1` [Example A12, 4-(((1s,3s)-3-hydroxycyclobutyl)amino)-5-(6-(4-methylpiperazin-1-yl)-1H-benzo[d]imidazol-2-yl)thieno[2,3-b]pyridin-6(7H)-one], the IC50 was no more than 50 nM.
Turning to `CC(C)[C@H](CO)Nc1c(-c2nc3ccc(N4CCN(C)CC4)cc3[nH]2)c(=O)[nH]c2sccc12` [Example A16, (R)-4-((1-hydroxy-3-methylbutan-2-yl)amino)-5-(6-(4-methylpiperazin-1-yl)-1H-benzo[d]imidazol-2-yl)thieno[2,3-b]pyridin-6(7H)-one], the IC50 was no more than 50 nM.
With `Cc1csc2[nH]c(=O)c(-c3nc4ccc(N5CCN(C)CC5)cc4[nH]3)c(NC3CCCC3)c12` [Example A19, 4-(cyclopentylamino)-3-methyl-5-(6-(4-methylpiperazin-1-yl)-1H-benzo[d]imidazol-2-yl)thieno[2,3-b]pyridin-6(7H)-one], the IC50 lay in the range of 50 to 500 nM.
With `Cc1csc2[nH]c(=O)c(-c3nc4ccc(N5CCN(C)CC5)cc4[nH]3)c(NC3CCOCC3)c12` [Example A20, 3-methyl-5-(6-(4-methylpiperazin-1-yl)-1H-benzo[d]imidazol-2-yl)-4-((tetrahydro-2H-pyran-4-yl)amino)thieno[2,3-b]pyridin-6(7H)-one], the 50% inhibitory concentration (IC50) was greater than 500 nM.
On to `CN1CCN(c2ccc3nc(-c4c(NC5CCOCC5)c5cscc5[nH]c4=O)[nH]c3c2)CC1` [Example A25, 3-(6-(4-methylpiperazin-1-yl)-1H-benzo[d]imidazol-2-yl)-4-((tetrahydro-2H-pyran-4-yl)amino)thieno[3,4-b]pyridin-2(1H)-one], for which the IC50 was no more than 50 nM.
For `CN1CCN(c2ccc3nc(-c4c(NCCN5CCOCC5)c5cscc5[nH]c4=O)[nH]c3c2)CC1` [Example A26, 3-(6-(4-methylpiperazin-1-yl)-1H-benzo[d]imidazol-2-yl)-4-((2-morpholinoethyl)amino) thieno[3,4-b]pyridin-2(1H)-one], the IC50 was no more than 50 nM.
`CN1CCN(c2ccc3nc(-c4c(NCc5ccccn5)c5cscc5[nH]c4=O)[nH]c3c2)CC1` [Example A28, 3-(6-(4-methylpiperazin-1-yl)-1H-benzo[d]imidazol-2-yl)-4-((pyridin-2-ylmethyl)amino)thieno[3,4-b]pyridin-2(1H)-one]: the IC50 is no more than 50 nM.
Consider `CN1CCN(c2ccc3nc(-c4c(O)c5sccc5[nH]c4=O)[nH]c3c2)CC1` [Example A29, 7-hydroxy-6-(6-(4-methylpiperazin-1-yl)-1H-benzo[d]imidazol-2-yl)thieno[3,2-b]pyridin-5(4H)-one], for which the IC50 was no more than 50 nM.
Turning to `Cc1cc2[nH]c(=O)c(-c3nc4ccc(N5CCN(C)CC5)cc4[nH]3)c(N)c2s1` [Example A32, 7-amino-2-methyl-6-(6-(4-methylpiperazin-1-yl)-1H-benzo[d]imidazol-2-yl)thieno[3,2-b]pyridin-5(4H)-one], the IC50 was greater than 500 nM.
Consider `C[C@@H]1CN(c2ccc3nc(-c4c(NC5CCCC5)c5sccc5[nH]c4=O)[nH]c3c2)C[C@H](C)N1C` [Example A47, 7-(cyclopentylamino)-6-(6-(3r,5s)-rel-3,4,5-trimethylpiper-azin-1-yl)-1H-benzo[d]imidazol-2-yl)thieno[3,2-b]pyridin-5(4H)-one], for which the IC50 was no more than 50 nM.
In the case of `CN1CCN(c2ccc3nc(-c4c(N5CCOCC5)c5sccc5[nH]c4=O)[nH]c3c2)CC1` [Example A49, 6-(6-(4-methylpiperazin-1-yl)-1H-benzo[d]imidazol-2-yl)-7-morpholinothieno[3,2-b]pyridin-5(4H)-one], the IC50 was greater than 500 nM.
Same read-out and setting: for `CN1CCN(c2ccc3nc(-c4c(N5CCC(O)CC5)c5sccc5[nH]c4=O)[nH]c3c2)CC1` [Example A50, 7-(4-hydroxypiperidin-1-yl)-6-(6-(4-methylpiperazin-1-yl)-1H-benzo[d]imidazol-2-yl)thieno[3,2-b]pyridin-5(4H)-one] the value was greater than 500 nM.
For the compound `Nc1c(-c2nc3cc(F)c(N4CCOCC4)cc3[nH]2)c(=O)[nH]c2sccc12` [Example A56, 4-amino-5-(5-fluoro-6-morpholino-1H-benzo[d]-imidazol-2-yl)-thieno-[2,3b]-pyridin-6(7H)-one], the half-inhibitory concentration (IC50) is no more than 50 nM.
On the same count and under the same terms, for `Nc1c(-c2nc3cc(C(=O)N4CCOCC4)ccc3[nH]2)c(=O)[nH]c2sccc12` [Example A62, 4-amino-5-(5-(morpho-line-4-carbonyl)-1H-benzo-[d]imidazol-2-yl)thieno[2,3-b]pyridin-6(7H)-one] the value was 50 to 500 nM; for `CN1CCN(c2ccc3nc(-c4c(NC5CC5)c5sccc5[nH]c4=O)[nH]c3c2)CC1` [Example A63, 7-(cyclopropylamino)-6-(6-(4-methylpiperazin-1-yl)-1H-benzo[d]imidazol-2-yl)thieno[3,2-b]-pyridin-5(4H)-one 2,2,2-trifluroaceatate], no more than 50 nM.
For the compound `C[C@@H]1CN(c2ccc3nc(-c4c(N[C@H]5CCCC[C@H]5O)c5ccsc5[nH]c4=O)[nH]c3c2)C[C@H](C)O1` [Example A73], the IC50 lay within 50 to 500 nM.
Take `COCCNc1c(-c2nc3ccc(N4CCN(C)CC4)cc3[nH]2)c(=O)[nH]c2sccc12` [Example A74, 4-((2-methoxyethyl)amino)-5-(6-(4-methylpiperazin-1-yl)-1H-benzo[d]imidazol-2-yl)thieno[2,3-b]pyridin-6(7H)-one]: the IC50 was no more than 50 nM.
As to `CN1CCN(c2ccc3nc(-c4c(N[C@@H]5CCC[C@H]5O)c5cscc5[nH]c4=O)[nH]c3c2)CC1` [Example A75, 4-(((1R,2R)-2-hydroxycyclopentyl)amino)-3-(6-(4-methylpiperazin-1-yl)-1H-benzo[d]imidazol-2-yl)thieno[3,4-b]pyridin-2(1H)-one], the IC50 was no more than 50 nM.
For `C[C@@H]1CN(c2ccc3nc(-c4c(N)c5ccsc5[nH]c4=O)[nH]c3c2)C[C@H](C)O1` [Example A76, 4-amino-5-(6-((2S,6R)-2,6-dimethylmorpholino)-1H-benzo[d]imidazol-2-yl)thieno[2,3-b]pyridin-6(7H)-one], the IC50 was no more than 50 nM.
On to `CN1CCN(c2ccc3nc(-c4c(N[C@@H]5CCCOC5)c5ccsc5[nH]c4=O)[nH]c3c2)CC1` [Example A77, (R)-5-(6-(4-methylpiperazin-1-yl)-1H-benzo[d]imidazol-2-yl)-4-((tetrahydro-2H-pyran-3-yl)amino)thieno[2,3-b]pyridin-6(7H)-one], for which the IC50 is no more than 50 nM.

For another test, the target named is T2, LCK (Homo sapiens, UniProt P06239).
T2 construct: purchased Invitrogen P3043
T2 sequence (P06239 whole entry, species assumed): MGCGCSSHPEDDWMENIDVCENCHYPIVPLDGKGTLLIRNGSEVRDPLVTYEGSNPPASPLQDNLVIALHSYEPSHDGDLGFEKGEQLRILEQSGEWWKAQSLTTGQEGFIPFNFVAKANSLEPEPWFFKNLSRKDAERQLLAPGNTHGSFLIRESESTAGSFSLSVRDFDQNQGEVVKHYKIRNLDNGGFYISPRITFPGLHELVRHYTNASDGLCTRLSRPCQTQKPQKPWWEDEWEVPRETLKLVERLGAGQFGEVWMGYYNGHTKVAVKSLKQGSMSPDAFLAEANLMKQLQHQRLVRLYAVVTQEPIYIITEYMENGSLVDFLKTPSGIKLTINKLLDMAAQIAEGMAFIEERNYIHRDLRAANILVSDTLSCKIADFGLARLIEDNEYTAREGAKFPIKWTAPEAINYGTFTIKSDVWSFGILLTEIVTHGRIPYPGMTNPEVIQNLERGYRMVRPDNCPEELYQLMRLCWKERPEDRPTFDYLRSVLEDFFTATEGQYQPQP
Kind of test: LCK inhibition, FRET based Z'-LYTE Kinase Assay. Particulars: 25 nM LCK, 180 μM ATP; read-out: IC50 Range Lck. Format: biochemical. As for the experimental part: FLT3 and LCK compound inhibition were determined using FRET based Z′-LYTE Kinase Assay Kit with Tyrosine 2 peptide as the substrate (Invitrogen cat #PV3191). […] The % inhibition values were determined according to the manufacturer's directions and IC50 values were obtained using a non-linear 4 point logistic curve fit (XLfit4, IDBS).
Turning to `COc1csc2[nH]c(=O)c(-c3nc4ccc(N5CCN(C)CC5)cc4[nH]3)c(N)c12` [Example A5, 4-amino-3-methoxy-5-(6-(4-methylpiperazin-1-yl)-1H-benzo[d]imidazol-2-yl)thieno[2,3-b]pyridin-6(7H)-one], the IC50 was greater than 500 nM.
Consider `CN1CCN(c2ccc3nc(-c4c(O)c5sccc5[nH]c4=O)[nH]c3c2)CC1` [Example A29, 7-hydroxy-6-(6-(4-methylpiperazin-1-yl)-1H-benzo[d]imidazol-2-yl)thieno[3,2-b]pyridin-5(4H)-one], for which the IC50 was in the range of 50 to 500 nM.
Consider `Cc1cc2[nH]c(=O)c(-c3nc4ccc(N5CCN(C)CC5)cc4[nH]3)c(N)c2s1` [Example A32, 7-amino-2-methyl-6-(6-(4-methylpiperazin-1-yl)-1H-benzo[d]imidazol-2-yl)thieno[3,2-b]pyridin-5(4H)-one], for which the IC50 is no more than 50 nM.
With `CN1CCN(c2ccc3nc(-c4c(N5CCC(O)CC5)c5sccc5[nH]c4=O)[nH]c3c2)CC1` [Example A50, 7-(4-hydroxypiperidin-1-yl)-6-(6-(4-methylpiperazin-1-yl)-1H-benzo[d]imidazol-2-yl)thieno[3,2-b]pyridin-5(4H)-one], the IC50 was greater than 500 nM.
